Measured values: patent US20230077280A1, “THERAPEUTIC COMPOUNDS FOR METHODS OF USE IN INSULIN RESISTANCE” (Baylor College of Medicine, priority 2019, published 2023)

Assays:
mice with CKD [1] = assay: CKD mice (subtotal nephrectomy): body weight, fasting blood glucose, glucose tolerance test; assay type: in vivo
Protocol: Animals: The experimental procedures were approved by the Institutional Animal Care and Use Committee of Baylor College of Medicine. Wild type (WT) mice (C57BL/6) were purchased from Jackson lab (Bar Harbor, Me.). To create a model of CKD, 8-10 week old mice underwent subtotal nephrectomy or sham-operated control as described; ^31 CKD mice with a BUN ˜80 mg/dl were studied. CKD or sham-operated control mice were assigned to two subgroups: one subgroup was injected intraperitoneally with TTI-101 (12.5 mg/kg body weight in D5W) every other day for 2 weeks, while the other subgroup received an identical volume of D5W for 2 weeks. For glucose tolerance tests (GTT), mice with free access to water were fasted for 16 hrs and then injected intraperitoneally (i.p.) with […] and tail vein blood was collected at 0, 30, 60 and 120 min intervals to measure blood glucose concentrations using a True Track Glucometer. For insulin tolerance test (ITT), mice were fasted for 4 hrs, then were injected i.p. with 2 units/kg insulin; tail vein blood was collected after 0, 30, 60 and 120 min to measure blood glucose concentrations. Changes in blood glucose were analyzed as the “area under curve” (AUC) method using Statstodo program (http://www.statstodo.com/AUC_Exp.php).

p-Stat3 = assay: Western blotting of gastrocnemius muscle lysates of CKD mice: p-Stat3; assay type: in vivo; details: 12.5 mg/kg i.p. every other day for 2 weeks, western blotting (FIG. 1D)
Protocol: Animals: The experimental procedures were approved by the Institutional Animal Care and Use Committee of Baylor College of Medicine. Wild type (WT) mice (C57BL/6) were purchased from Jackson lab (Bar Harbor, Me.). To create a model of CKD, 8-10 week old mice underwent subtotal nephrectomy or sham-operated control as described; ^31 CKD mice with a BUN 80 mg/dl were studied. […] Antibodies: The primary antibodies of p-Akt (Ser473) (D9E) #4060, Akt (40D4)#2920, p-Stat3 (Tyr705) ([MUT])#9145, Stat3(124H6)#9139 were from Cell Signaling technology (Beverly, Mass., USA). Antibody against Fbxo40 #ab190688 was from Abcam (Cambridge, Mass., USA). Antibody against IRS1 #611395 was obtained from BD Biosciences (San Jose, Calif.). Anti-GAPDH#PA1-987 was from Thermo Fisher Scientific. The antibody was verified by the molecular size of recognized proteins.

p-Akt [2] = assay: Western blotting of gastrocnemius muscle lysates of CKD mice: p-Akt; assay type: in vivo; details: 12.5 mg/kg i.p. every other day for 2 weeks, western blotting (FIG. 1D)
Protocol: (§1) Animals: The experimental procedures were approved by the Institutional Animal Care and Use Committee of Baylor College of Medicine. Wild type (WT) mice (C57BL/6) were purchased from Jackson lab (Bar Harbor, Me.). To create a model of CKD, 8-10 week old mice underwent subtotal nephrectomy or sham-operated control as described; ^31 CKD mice with a BUN 80 mg/dl were studied. CKD or sham-operated control mice were assigned to two subgroups: one subgroup was injected intraperitoneally with TTI-101 (12.5 mg/kg body weight in D5W) every other day for 2 weeks, while the other subgroup received an identical volume of D5W for 2 weeks. Antibodies: The primary antibodies of p-Akt (Ser473) (D9E) #4060, Akt (40D4)#2920, p-Stat3 (Tyr705) ([…])#9145, Stat3(124H6)#9139 were from Cell Signaling technology (Beverly, Mass., USA). Antibody against Fbxo40 #ab190688 was from Abcam (Cambridge, Mass., USA). Antibody against IRS1 #611395 was obtained from BD Biosciences (San Jose, Calif.). Anti-GAPDH#PA1-987 was from Thermo Fisher Scientific. The antibody was verified by the molecular size of recognized proteins.

Fbxo40 [3] = assay: qPCR of Fbxo40 mRNA in TA muscles of CKD mice; assay type: in vivo; details: vs D5W diluent (FIG. 2G)
Protocol: (§2) Animals: The experimental procedures were approved by the Institutional Animal Care and Use Committee of Baylor College of Medicine. Wild type (WT) mice (C57BL/6) were purchased from Jackson lab (Bar Harbor, Me.). To create a model of CKD, 8-10 week old mice underwent subtotal nephrectomy or sham-operated control as described; ^31 CKD mice with a BUN ˜80 mg/dl were studied. CKD or sham-operated control mice were assigned to two subgroups: one subgroup was injected intraperitoneally with TTI-101 (12.5 mg/kg body weight in D5W) every other day for 2 weeks, while the other subgroup received an identical volume of D5W for 2 weeks.
(§3) RNA extraction and quantitative real-time PCR (qPCR): RNAs were isolated using the RNeasy kit (Qiagen, Valencia, Calif.) as instructed by the company. RT-PCR was performed to obtain relative gene expressions by calculating cycle threshold (Ct) values using GAPDH as an internal control (relative expression=2(sample Ct−GAPDH Ct)).^35 Sequences of primers will be provided upon request.

IRS1 [4] = assay: qPCR of IRS1 mRNA in TA muscles of CKD mice; assay type: in vivo; details: vs D5W diluent (FIG. 2H)
Protocol: as §2, §3

Fbxo40 [5] = assay: Western blotting of tibialis anterior muscle lysates of CKD mice: Fbxo40 protein; assay type: in vivo; details: western blotting (FIGS. 2I and 2J)
Protocol: as §1

HFD-fed mice = assay: High fat diet (HFD) mice: fasting blood glucose, glucose tolerance test, insulin tolerance test; assay type: in vivo; details: mice fed HFD 12 weeks
Protocol: Another model was generated of insulin resistance by feeding wild type mice a high fat diet (HFD: 58% kcal from fat, Research Diets, New Brunswick, N.J.) for 12 weeks while control mice were fed the regular diet (RD: 11% kcal from fat). To study the effect of p-Stat3 on insulin resistance, HFD-fed mice were randomly assigned to two subgroups: one subgroup was injected intraperitoneally (i.p.) with TTI-101 (12.5 mg/kg body weight in D5W) every other day for 4 weeks, while the other subgroup received an identical volume of D5W for 4 weeks. For glucose tolerance tests (GTT), mice with free access to water were fasted for 16 hrs and then injected intraperitoneally (i.p.) with […] and tail vein blood was collected at 0, 30, 60 and 120 min intervals to measure blood glucose concentrations using a True Track Glucometer. For insulin tolerance test (ITT), mice were fasted for 4 hrs, then were injected i.p. with 2 units/kg insulin; tail vein blood was collected after 0, 30, 60 and 120 min to measure blood glucose concentrations. Changes in blood glucose were analyzed as the “area under curve” (AUC) method using Statstodo program (http://www.statstodo.com/AUC_Exp.php).

IRS1 [6] = assay: Western blotting of muscle lysates of HFD mice: IRS1; assay type: in vivo; details: 12.5 mg/kg i.p. every other day for 4 weeks, vs diluent (FIG. 3J)
Protocol: (§4) Another model was generated of insulin resistance by feeding wild type mice a high fat diet (HFD: 58% kcal from fat, Research Diets, New Brunswick, N.J.) for 12 weeks while control mice were fed the regular diet (RD: 11% kcal from fat). To study the effect of p-Stat3 on insulin resistance, HFD-fed mice were randomly assigned to two subgroups: one subgroup was injected intraperitoneally (i.p.) with TTI-101 (12.5 mg/kg body weight in D5W) every other day for 4 weeks, while the other subgroup received an identical volume of D5W for 4 weeks. Antibodies: The primary antibodies of p-Akt ([…]) (D9E) #4060, Akt (40D4)#2920, p-Stat3 ([…]) (D3A7)#9145, Stat3(124H6)#9139 were from Cell Signaling technology (Beverly, Mass., USA). Antibody against Fbxo40 #ab190688 was from Abcam (Cambridge, Mass., USA). Antibody against IRS1 #611395 was obtained from BD Biosciences (San Jose, Calif.). Anti-GAPDH#PA1-987 was from Thermo Fisher Scientific. The antibody was verified by the molecular size of recognized proteins.

p-Akt [7] = assay: Western blotting of muscle lysates of HFD mice: p-Akt; assay type: in vivo; details: 12.5 mg/kg i.p. every other day for 4 weeks, vs diluent (FIG. 3J)
Protocol: as §4

mice with CKD [8] = details: earlier experiments (refs 33, 34); cited from earlier work

SMILES: COc1ccc(S(=O)(=O)Nc2cc(-c3c(O)ccc4ccccc34)c(O)c3ccccc23)cc1 [TTI-101, N-(1′,2-dihydroxy-1,2′-binaphthalen-4′-yl)-4-methoxybenzenesulfonamide]
- glucose tolerance (mice with CKD [1]; 12.5 mg/kg i.p. every other day for 2 weeks, vs D5W diluent (FIG. 1C)): significantly improved
- body weight (mice with CKD [1]; 12.5 mg/kg i.p. every other day, after 2 weeks of treatment, vs D5W diluent (FIG. 1A)): increased
- blood glucose levels (fasting, 16 hr) (mice with CKD [1]; 12.5 mg/kg i.p. every other day, after 2 weeks of treatment, vs D5W diluent (FIG. 1B)): decreased
- p-Stat3 in muscle lysates (p-Stat3): suppressed
- p-Akt in muscle lysates (p-Akt [2]): increasing
- Fbxo40 mRNA in muscles (Fbxo40 [3]): suppression
- IRS1 mRNAs in muscles (IRS1 [4]): increased
- Fbxo40 protein in muscles (Fbxo40 [5]): significantly decreased
- fasting values of blood glucose (HFD-fed mice; then 12.5 mg/kg i.p. every other day for 4 weeks with HFD continued, vs diluent (FIG. 3G)): decreased
- glucose tolerance (HFD-fed mice; then 12.5 mg/kg i.p. every other day for 4 weeks, vs diluent (FIG. 3H)): improved
- insulin tolerance (HFD-fed mice; then 12.5 mg/kg i.p. every other day for 4 weeks, vs diluent (FIG. 3I)): improved
- IRS1 levels in muscles (IRS1 [6]): higher levels
- p-Akt levels in muscles (p-Akt [7]): higher levels
- body weights of mice (mice with CKD [8]): increases
